These results are taken from patent US9833497B2, “Human originated EGF domain proteins and use of the same” (CHENGDU SOURCEBIO LIMITED-LIABILITY COMPANY, priority 2013, dated 2017).

Common to all, as to assay type: cell-based
The subject of experiment [1] is E. coli DH5α. Put plainly: Antibacterial activity: MIC and growth curve against E. coli DH5α in 96-well plate. Conditions: minimal inhibitory concentration against E. coli DH5α; 96-well plate, 5×10^5 CFU/mL, 37° C., judged after 8 h. Summed up: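 MIC taken as lowest protein level with no bacterial growth, tracked by A600 every 30 min during 37 °C, 175 rpm culture. Two-fold protein series 50-12.5 μg/mL final, triplicate wells, against 5×10^5 CFU/mL of LB-washed mid-log cells.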

Experiment [2] relates to E. coli BL21. In words: MIC against Gram-negative bacteria: E. coli BL21. Summed up: (§1)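 Broth microdilution, LB medium, final inoculum 5×10^5 CFU/mL from McFarland 0.5 cultures. Recombinant human EGF domain proteins tested in two-fold steps, n=3. MIC: lowest concentration, no growth.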
Experiment [3] concerns Pseudomonas aeruginosa. Put plainly: MIC against Gram-negative bacteria: Pseudomonas aeruginosa. The gist of the method:
as §1

The test system of experiment [4] is Klebsiella pneumonia. In words: MIC against Gram-negative bacteria: Klebsiella pneumonia. Summed up: as §1
Experiment [5] concerns Enterobacter cloacae. In words: MIC against Gram-negative bacteria: Enterobacter cloacae. The gist of the method:
as §1

Experiment [6] relates to Aeromonas hydrophila. In words: MIC against Gram-negative bacteria: Aeromonas hydrophila. The gist of the method:
as §1

Experiment [7] concerns Citrobacter diversus. Put plainly: MIC against Gram-negative bacteria: Citrobacter diversus. The gist of the method: as §1
Experiment [8] relates to Moraxella catarrhalis. In words: MIC against Gram-negative bacteria: Moraxella catarrhalis. Summed up: as §1
Experiment [9] has as its system Proteus mirabilis. In words: MIC against Gram-negative bacteria: Proteus mirabilis. The gist of the method: as §1
Experiment [10] relates to Proteus vulgaris. Put plainly: MIC against Gram-negative bacteria: Proteus vulgaris. Summed up:
as §1

Experiment [11] deals with Serratia marcescens. In words: MIC against Gram-negative bacteria: Serratia marcescens. The gist of the method: as §1
Setting [12] is: 96-well plate, 5×10^5 CFU/mL, 37° C., 10 h.

One may read the MIC as the least concentration at which growth counts as inhibited. The substance “PRT1351 (TAVCQSPCLNGGKCVRPNRCHCLSSWTGHNCS; listed as Homo sapiens)” gave an MIC in experiment [1] of 25 µg/mL. Also, the “MIC against E. coli BL21” value in [2] (E. coli BL21, 5×10^5 CFU/mL, 10 h cultivation at 37° C.) turned out to be 25 µg/mL. Further, the “MIC against P. aeruginosa” value in experiment [3] (Pseudomonas aeruginosa, 5×10^5 CFU/mL, 10 h cultivation at 37° C.) is 50 µg/mL. The “MIC against K. pneumonia” value in experiment [4] (Klebsiella pneumonia, 5×10^5 CFU/mL, 10 h cultivation at 37° C.) is 25 µg/mL. In addition, the “MIC against E. cloacae” value in [5] (Enterobacter cloacae, 5×10^5 CFU/mL, 10 h cultivation at 37° C.) came to 12.5 µg/mL. Moreover, in experiment [6] (Aeromonas hydrophila, 5×10^5 CFU/mL, 10 h cultivation at 37° C.), the “MIC against A. hydrophila” value was 12.5 µg/mL. In experiment [7] (Citrobacter diversus, 5×10^5 CFU/mL, 10 h cultivation at 37° C.), the “MIC against C. diversus” value amounted to 12.5 µg/mL. Further, the “MIC against M. catarrhalis” value in experiment [8] (Moraxella catarrhalis, 5×10^5 CFU/mL, 10 h cultivation at 37° C.) turned out to be 25 µg/mL. The “MIC against P. mirabilis” value in [9] (Proteus mirabilis, 5×10^5 CFU/mL, 10 h cultivation at 37° C.) is 12.5 µg/mL. For the same substance, the “MIC against P. vulgaris” value in [10] (Proteus vulgaris, 5×10^5 CFU/mL, 10 h cultivation at 37° C.) was found to be 25 µg/mL. Moreover, in [11] (Serratia marcescens, 5×10^5 CFU/mL, 10 h cultivation at 37° C.), the “MIC against S. marcescens” value was found to be 12.5 µg/mL.

As for “PRT476 (VVPVCRPNPCQNGATCSRHKRRSKFTCACPDQFKGKFCE; listed as Homo sapiens)”, the MIC in [1] amounted to 12.5 µg/mL. The “MIC against E. coli BL21” value in [2] (setting [12]) worked out at 12.5 µg/mL. Moreover, in [3] (setting [12]), the “MIC against P. aeruginosa” value came out at 50 µg/mL. Also, in [4] (setting [12]), the “MIC against K. pneumonia” value amounted to 12.5 µg/mL. Further, in experiment [5] (setting [12]), the “MIC against E. cloacae” value was found to be 50 µg/mL. In [6] (setting [12]), the “MIC against A. hydrophila” value amounted to 12.5 µg/mL. Moreover, the “MIC against C. diversus” value in [7] (setting [12]) is 50 µg/mL. In addition, the “MIC against M. catarrhalis” value in [8] (setting [12]) was found to be 25 µg/mL. Further, in experiment [9] (setting [12]), the “MIC against P. mirabilis” value was 25 µg/mL. Moreover, in experiment [10] (setting [12]), the “MIC against P. vulgaris” value was determined as 12.5 µg/mL. In experiment [11] (setting [12]), the “MIC against S. marcescens” value was 50 µg/mL.

In experiment [1], “PRT796 (SGDFCIPLCTEECVHGRCVSPDTCHCEPGWGGPDCS; listed as Homo sapiens)” yielded an MIC of 25 µg/mL. The “MIC (μg/mL) E. coli BL21” value in experiment [2] (E. coli BL21, 10 h cultivation at 37° C., 5×10^5 CFU/mL) stood at 50 µg/mL. In addition, the “MIC (μg/mL) P. aeruginosa” value in experiment [3] (P. aeruginosa, 10 h cultivation at 37° C., 5×10^5 CFU/mL) is 12.5 µg/mL. Besides, the “MIC (μg/mL) K. pneumonia” value in experiment [4] (K. pneumonia, 10 h cultivation at 37° C., 5×10^5 CFU/mL) stood at 50 µg/mL. In addition, the “MIC (μg/mL) E. cloacae” value in experiment [5] (E. cloacae, 10 h cultivation at 37° C., 5×10^5 CFU/mL) was 50 µg/mL. Also, the “MIC (μg/mL) A. hydrophila” value in experiment [6] (A. hydrophila, 10 h cultivation at 37° C., 5×10^5 CFU/mL) was found to be 50 µg/mL. For the same substance, the “MIC (μg/mL) C. diversus” value in [7] (C. diversus, 10 h cultivation at 37° C., 5×10^5 CFU/mL) was determined as 5 µg/mL. For the same substance, the “MIC (μg/mL) M. catarrhalis” value in experiment [8] (M. catarrhalis, 10 h cultivation at 37° C., 5×10^5 CFU/mL) came out at 50 µg/mL. Also, the “MIC (μg/mL) P. mirabilis” value in experiment [9] (P. mirabilis, 10 h cultivation at 37° C., 5×10^5 CFU/mL) is 12.5 µg/mL. Besides, the “MIC (μg/mL) P. vulgaris” value in experiment [10] (P. vulgaris, 10 h cultivation at 37° C., 5×10^5 CFU/mL) was 50 µg/mL. Also, the “MIC (μg/mL) S. marcescens” value in experiment [11] (S. marcescens, 10 h cultivation at 37° C., 5×10^5 CFU/mL) came out at 50 µg/mL.

For “PRT1040 (AAHPCVRAPCAHGGSCRPRKEGYDCDCPLGFEGLHCQ; listed as Homo sapiens)”, the MIC in experiment [1] came out at 12.5 µg/mL; in experiment [2] (E. coli BL21, 10 h cultivation at 37° C.) it was 50 µg/mL; in [3] (P. aeruginosa, 10 h cultivation at 37° C.) it was 50 µg/mL; in experiment [4] (K. pneumonia, 10 h cultivation at 37° C.), 25 µg/mL; in experiment [5] (E. cloacae, 10 h cultivation at 37° C.), 50 µg/mL; in experiment [6] (A. hydrophila, 10 h cultivation at 37° C.), 12.5 µg/mL. Besides, the MIC was 50 µg/mL in experiment [7] (C. diversus, 10 h cultivation at 37° C.); 25 µg/mL in [8] (M. catarrhalis, 10 h cultivation at 37° C.); 50 µg/mL in experiment [9] (P. mirabilis, 10 h cultivation at 37° C.); 25 µg/mL in experiment [10] (P. vulgaris, 10 h cultivation at 37° C.); 50 µg/mL in experiment [11] (S. marcescens, 10 h cultivation at 37° C.).

As for “PRT647 (DVDECLRPDVCGEGHCVNTVGAFRCEYCDSGYRMTQRGRCE; listed as Homo sapiens)”, the MIC in experiment [1] stood at 25 µg/mL. For the same substance, the “MIC E. coli BL21” value in experiment [2] (setting [12]) is 12.5 µg/mL. In [3] (setting [12]), the “MIC P. aeruginosa” value amounted to 25 µg/mL. The “MIC K. pneumonia” value in experiment [4] (setting [12]) came to 50 µg/mL. Besides, the “MIC E. cloacae” value in experiment [5] (setting [12]) came to 12.5 µg/mL. Further, the “MIC A. hydrophila” value in experiment [6] (setting [12]) was found to be 50 µg/mL. Moreover, in experiment [7] (setting [12]), the “MIC C. diversus” value stood at 12.5 µg/mL. Moreover, the “MIC M. catarrhalis” value in [8] (setting [12]) amounted to 50 µg/mL. The “MIC P. mirabilis” value in experiment [9] (setting [12]) came out at 12.5 µg/mL. Besides, the “MIC P. vulgaris” value in experiment [10] (setting [12]) was 50 µg/mL. For the same substance, in [11] (setting [12]), the “MIC S. marcescens” value stood at 25 µg/mL.
